Reference: patent US20260250257A1, “ANTIBACTERIAL AND SYNERGISTIC ACTIVE COMPOUND AND USE THEREOF” (EAST CHINA UNIVERSITY OF SCIENCE AND TECHNOLOGY, priority 2023, published 2026)
In brackets after ≈: the same amount, converted by molar mass.

Assays:
Type in all cases: cell-based
[1] = system: ATCC25922 strain (Escherichia coli); experiment: Checkerboard antibacterial synergistic activity test with polymyxin E (FIC); design: key: FIC≤0.5 synergy; 0.5–1 additive; 1–2 indifferent; ≥2 antagonism; conditions: combined with polymyxin E
Procedure: (§1) Polymyxin E was diluted in sterile MH broth medium to concentrations of 16, 8, 4, 2, 1, 0.5, 0.25, 0.125, 0.0625, 0.031, and 0.015 μg/ml, and the drug to be tested was diluted to concentrations of 256, 128, 64, 32, 16, 8, and 4 μg/ml. According to the checkerboard method, combinations of the drug to be tested and polymyxin at different concentrations in ascending order were placed into a 96-well plate, and corresponding blank control groups were set up. 50 μl of the drug solution was added to each well, then 100 μl of bacterial liquid was added, and incubated in a 37° C. incubator for 16 hours. […] Calculation and judgment criteria:
(§2) Fractional Inhibitory Concentration (FIC) is calculated as follows: […]
(§3) Judgment criteria: FIC≤0.5: synergistic effect; 0.5<FIC<1: additive effect; 1<FIC<2: indifferent effect; FIC≥2: antagonistic effect.
(§4) In the table: ATCC19606 strain is Acinetobacter baumannii, ATCC25922 strain is Escherichia coli, ATCC13883 strain is Klebsiella pneumoniae, ATCC9027 strain is Pseudomonas aeruginosa. All four strains were purchased from ATCC.

[2] = system: ATCC13883 strain (Klebsiella pneumoniae); experiment: as above; design: key: FIC≤0.5 synergy; 0.5–1 additive; 1–2 indifferent; ≥2 antagonism; conditions: combined with polymyxin E
Procedure: as §1, §2, §3, §4

[3] = system: ATCC9027 strain (Pseudomonas aeruginosa); experiment: as above; design: key: FIC≤0.5 synergy; 0.5–1 additive; 1–2 indifferent; ≥2 antagonism; conditions: combined with polymyxin E
Procedure: as §1, §2, §3, §4

[4] = system: ATCC19606 strain (Acinetobacter baumannii); experiment: as above; design: key: FIC≤0.5 synergy; 0.5–1 additive; 1–2 indifferent; ≥2 antagonism; conditions: combined with polymyxin E
Procedure: as §1, §2, §3, §4

[5] = system: ATCC25922 strain (Escherichia coli); experiment: Broth microdilution, antibacterial activity of the compound used alone; conditions: for MIC: read-out: Antibacterial activity of the compound of Formula I, ATCC25922
From the text: (§5) The broth microdilution method was used to test the antibacterial effects of the compounds of the present invention against various Gram-negative bacterial strains when used alone.

[6] = system: ATCC13883 strain (Klebsiella pneumoniae); experiment: as above; conditions: for MIC: read-out: Antibacterial activity of the compound of Formula I, ATCC13883
From the text: as §5

[7] = system: ATCC9027 strain (Pseudomonas aeruginosa); experiment: as above; conditions: for MIC: read-out: Antibacterial activity of the compound of Formula I, ATCC9027
From the text: as §5

[8] = system: ATCC19606 strain (Acinetobacter baumannii); experiment: as above; conditions: for MIC: read-out: Antibacterial activity of the compound of Formula I, ATCC19606
From the text: as §5

Row | SMILES | Synergistic activity (FIC value) ATCC25922 [1] | Synergistic activity (FIC value) ATCC13883 [2] | Synergistic activity (FIC value) ATCC9027 [3] | Synergistic activity (FIC value) ATCC19606 [4] | Antibacterial activity of the compound of Formula I, ATCC25922 [5] [µg/mL] | Antibacterial activity of the compound of Formula I, ATCC13883 [6] [µg/mL] | Antibacterial activity of the compound of Formula I, ATCC9027 [7] [µg/mL] | Antibacterial activity of the compound of Formula I, ATCC19606 [8] [µg/mL] | MIC [5] [µg/mL] | MIC [6] [µg/mL] | MIC [7] [µg/mL] | MIC [8] [µg/mL]
1 | Clc1cccc(-c2nc(N=C3NCCCN3)sc2Br)c1 [Compound I-185] | 1.25 | 1.25 | 1.25 | 0.75 | 256 | 256 | 256 | 256 |  |  |  | 
2 | NC(N)=Nc1nc(-c2cccc3cccc(Cl)c23)c(Cl)s1 [Compound I-62] | 0.63 | 0.52 | 1.25 | 0.52 | 128 | 128 | 64 | 256 |  |  |  | 
3 | COc1ccc(Oc2ccccc2-c2nc(N=C3NCCCN3)sc2C)c(C)c1 [Compound I-144] | 0.18 | 0.16 | 0.28 | 0.03 | 256 | 256 | 256 | 256 |  |  |  | 
4 | NC(N)=Nc1nc(-c2cccc3ncsc23)co1 [Compound I-71] | 0.52 | 0.19 | 1.25 | 0.13 | 256 | 256 | 256 | 256 |  |  |  | 
5 | N#Cc1cc(Oc2ccccc2I)cc(-c2coc(N=C3NCCCN3)n2)c1 [Compound I-157] | 0.14 | 0.09 | 0.06 | 0.31 | 256 | 256 | 256 | 256 |  |  |  | 
6 | FC(F)(F)c1cc(-c2nc(N=C3NCCCN3)sc2Cl)ccc1Cl [Compound I-186] | 0.52 | 0.19 | 1.25 | 0.13 | 256 | 256 | 256 | 256 |  |  |  | 
7 | CC(C)=CCOc1cccc(-c2csc(N=C(N)N)n2)c1 [Compound I-47] | 0.5 | 1.25 | 1.25 | 0.75 |  |  |  |  | 256 (≈ 847 µM) | 256 (≈ 847 µM) | 256 (≈ 847 µM) | 256 (≈ 847 µM)
8 | NC(N)=Nc1nc(-c2ccc3ccccn23)cs1 [Compound I-122] | 0.38 | 0.56 | 0.75 | 0.56 | 256 | 256 | 256 | 256 |  |  |  | 
9 | Oc1c(Cl)cc(-c2csc(N=C3NCCCN3)n2)cc1Cl [Compound I-188] | 1.25 | 1.25 | 0.52 | 0.25 | 256 | 256 | 256 | 256 |  |  |  | 
10 | Cc1ccccc1Oc1cccc(-c2csc(N=C(N)N)n2)c1 [Compound I-91] | 0.26 | 0.19 | 0.52 | 0.04 | 128 | 128 | 64 | 256 |  |  |  | 
11 | Cc1sc(N=C2NCCCN2)nc1-c1cc(C(C)C)cc(C(C)C)c1 [Compound I-167] | 0.5 | 0.25 | 0.63 | 0.3 | 256 | 256 | 256 | 256 |  |  |  | 
12 | CSc1cc2ccccn2c1-c1c[nH]c(N=C2NCCCN2)n1 [Compound I-190] | 1.25 | 1.25 | 1.25 | 0.75 | 256 | 256 | 256 | 256 |  |  |  | 
13 | NC(N)=Nc1nc(-c2cccc(C(=O)Nc3ccccc3)c2)cs1 [Compound I-110] | 0.56 | 0.31 | 0.5 | 0.25 | 256 | 256 | 256 | 256 |  |  |  | 
14 | NC(N)=Nc1nc(-c2ccc3ccccc3c2)cs1 [Compound I-56] | 0.5 | 1.25 | 1.25 | 1.25 |  |  |  |  | 256 (≈ 954 µM) | 256 (≈ 954 µM) | 256 (≈ 954 µM) | 256 (≈ 954 µM)
15 | Cc1ccc(Oc2cccc(-c3csc(N=C4NCCCN4)n3)c2)c(C)c1 [Compound I-153] | 0.14 | 0.09 | 0.06 | 0.31 | 256 | 256 | 256 | 256 |  |  |  | 
16 | NC(N)=Nc1nc(-c2ccc(O)c(CO)c2)cs1 [Compound I-121] | 0.56 | 1.25 | 1.25 | 1.25 |  |  |  |  | 256 (≈ 969 µM) | 256 (≈ 969 µM) | 256 (≈ 969 µM) | 256 (≈ 969 µM)
17 | NC(N)=Nc1nc(-c2cccc(-c3ccccc3)c2)cs1 [Compound I-74] | 0.39 | 0.33 | 0.62 | 0.15 |  |  |  |  | 256 (≈ 870 µM) | 256 (≈ 870 µM) | 256 (≈ 870 µM) | 256 (≈ 870 µM)
18 | NC(N)=Nc1nc(-c2ccccc2Oc2ccc(I)cc2I)cs1 [Compound I-87] | 0.18 | 0.16 | 0.28 | 0.03 | 256 | 256 | 256 | 256 |  |  |  | 
